Results as given in US11179391B2, “Compound with kinase inhibitory activity and preparation method and use thereof” (priority 2017, dated 2021).

Assays:
[1] = Pharmacokinetic study in rats; format: in vivo, Sprague-Dawley rats; details: for F / Cmax / Tmax / clearance / half-life / AUC(0-t): male Sprague-Dawley rats; for F: iv 2 mg/kg and oral 5 mg/kg; for clearance in rat plasma (in words) / half-life in rat plasma (in words) / level of exposure at 24 h in rat plasma (in words): at the dose of 10 mg/kg; for Cmax / Tmax / clearance / half-life / AUC(0-t): rat, plasma, study dosed iv 2 mg/kg and oral 5 mg/kg, route of this parameter not given; for AUC(0-t): read-out: AUC0-24 h
Procedure: Healthy adult Sprague-Dawley rats, male, 7-10 weeks old, weighing 240-270 g, provided by Beijing Vital River Laboratory Animal Technology Co., Ltd., with an animal certificate number of 1140070278736.
Test compounds of the invention: example 17, 33, 40, and 57.
Intravenous administration solvent system of compounds: 10% (V/V) NMP and 90% (20% (V/V)) SBE-β-CD in 16.667 mM PBS with a concentration of 1.0 mg/mL.
Oral administration solvent system of compounds: pure water system containing 0.1% hydroxyethyl cellulose and 0.5% Tween-80, with a concentration of 1 mg/mL.
Intravenous administration: 3 male Sprague-Dawley rats of each test compound were injected intravenously after fasting overnight, with a dose of 2 mg/kg, and the dosing volume was 2 mL/kg. […]
Before the administration, and after administration of 0.0833 (iv), 0.25, 0.5, 1, 2, 4, 8, 12, and 24 h, the jugular vein puncture (approximately 0.15 mL per time point) of each animal was performed by collecting blood from polypropylene tubes. All blood samples were transferred to pre-cooled EDTA-K2 test tubes or pre-cooled plastic microcentrifuge tubes containing 3 μL of 0.5 M EDTA-K2 as anticoagulant and placed on wet ice until centrifugation. Each collected blood was centrifuged at 4° C. for 15 minutes, and plasma was collected. All plasma would be stored in a freezer at about −80° C. until LCMS/MS detection.

CDK1/CyclinB = CDK1/CyclinB (Homo sapiens, UniProt P06493); assay: Determination of CDK activity (Caliper mobility shift, FAM-P8 peptide): CDK1; format: biochemical; details: CDK1/CyclinB; read-out: CDK1 enzymatic inhibitory activity (IC50)
Sequence of CDK1/CyclinB (P06493 whole entry): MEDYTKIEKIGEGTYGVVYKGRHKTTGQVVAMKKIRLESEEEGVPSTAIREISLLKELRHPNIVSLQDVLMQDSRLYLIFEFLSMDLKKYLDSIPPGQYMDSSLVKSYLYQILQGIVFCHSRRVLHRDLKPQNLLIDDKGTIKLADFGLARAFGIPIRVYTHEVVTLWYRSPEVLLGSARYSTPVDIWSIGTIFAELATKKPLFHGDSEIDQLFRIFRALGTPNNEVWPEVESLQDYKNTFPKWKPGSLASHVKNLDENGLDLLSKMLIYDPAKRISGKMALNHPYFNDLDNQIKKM
Sequence of CDK1/CyclinB (P14635 whole entry partner): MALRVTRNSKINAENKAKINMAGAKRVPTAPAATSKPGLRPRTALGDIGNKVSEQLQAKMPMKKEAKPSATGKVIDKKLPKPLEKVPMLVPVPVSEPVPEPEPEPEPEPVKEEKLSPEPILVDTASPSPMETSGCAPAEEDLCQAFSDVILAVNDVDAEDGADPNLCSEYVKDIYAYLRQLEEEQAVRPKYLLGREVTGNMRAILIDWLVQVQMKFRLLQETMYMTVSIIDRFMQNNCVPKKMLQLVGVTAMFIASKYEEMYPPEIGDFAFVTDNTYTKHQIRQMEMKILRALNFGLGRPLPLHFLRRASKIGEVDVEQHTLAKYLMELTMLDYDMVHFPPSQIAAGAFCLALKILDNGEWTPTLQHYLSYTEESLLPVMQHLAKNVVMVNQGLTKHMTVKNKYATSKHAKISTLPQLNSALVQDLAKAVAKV

CDK7/CyclinH/MAT1 = CDK7/CyclinH/MAT1 (Homo sapiens, UniProt P50613); assay: Determination of CDK activity (Caliper mobility shift, FAM-P8 peptide): CDK7; format: biochemical; details: CDK7/CyclinH/MAT1; read-out: CDK7 enzymatic inhibitory activity (IC50)
Sequence of CDK7/CyclinH/MAT1 (P50613 whole entry): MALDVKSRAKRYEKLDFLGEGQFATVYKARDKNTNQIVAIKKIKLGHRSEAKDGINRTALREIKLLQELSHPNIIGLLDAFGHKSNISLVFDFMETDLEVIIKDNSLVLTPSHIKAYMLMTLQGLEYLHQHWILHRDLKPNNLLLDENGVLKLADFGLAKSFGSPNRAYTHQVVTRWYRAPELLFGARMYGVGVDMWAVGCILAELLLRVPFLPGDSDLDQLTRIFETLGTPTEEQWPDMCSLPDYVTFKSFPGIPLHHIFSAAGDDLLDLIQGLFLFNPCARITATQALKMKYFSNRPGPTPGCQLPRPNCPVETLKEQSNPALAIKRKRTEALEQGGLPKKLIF
Sequence of CDK7/CyclinH/MAT1 (P51946 whole entry partner): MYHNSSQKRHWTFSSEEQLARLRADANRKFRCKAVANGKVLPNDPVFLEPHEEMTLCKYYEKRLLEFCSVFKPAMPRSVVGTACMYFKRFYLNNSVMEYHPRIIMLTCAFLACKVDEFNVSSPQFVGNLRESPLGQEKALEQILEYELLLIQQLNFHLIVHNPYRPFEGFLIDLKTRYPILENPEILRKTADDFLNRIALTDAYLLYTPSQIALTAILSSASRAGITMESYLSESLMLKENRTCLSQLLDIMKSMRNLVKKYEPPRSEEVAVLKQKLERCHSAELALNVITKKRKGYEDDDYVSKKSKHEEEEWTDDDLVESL
Sequence of CDK7/CyclinH/MAT1 (P51948 whole entry partner): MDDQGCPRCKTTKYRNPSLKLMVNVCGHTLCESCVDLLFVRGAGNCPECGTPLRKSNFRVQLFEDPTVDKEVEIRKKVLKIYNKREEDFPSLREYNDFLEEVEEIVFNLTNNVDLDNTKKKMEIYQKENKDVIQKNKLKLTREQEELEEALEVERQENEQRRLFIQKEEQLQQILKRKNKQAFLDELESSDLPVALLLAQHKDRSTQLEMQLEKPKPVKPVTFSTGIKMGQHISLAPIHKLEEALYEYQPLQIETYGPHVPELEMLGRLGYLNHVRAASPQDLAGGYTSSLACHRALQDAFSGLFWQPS
Outline: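 His-CDK7/GST-MAT1/cyclin H preincubated with compound (10-point series) 10 min at room temperature, then reacted with FAM-P8 peptide plus ATP at 28 °C for a set time before stopping. Peptide conversion read by Caliper mobility shift; converted to % inhibition vs controls and IC50 fitted.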

[2] = test system: Human leukemia MV4-11 cells; assay: Pharmacodynamic study on mouse MV4-11 model (subcutaneous xenograft); format: in vivo, BALB/c nude mice; details: for tumor inhibition effect compared with Abemaciclib (in words) / Tumor volume (day 0) / Tumor volume (day 21) / T/C relative tumor proliferation rate / TGI tumor growth inhibition rate: MV4-11 model, 50 mg/kg PO × 21 days; for Tumor volume (day 0): baseline at start of dosing; for Tumor volume (day 0) / Tumor volume (day 21) / T/C relative tumor proliferation rate / TGI tumor growth inhibition rate: mesylate; for T/C relative tumor proliferation rate / TGI tumor growth inhibition rate: day 21; for inhibitory effect on the tumor growth (in words): MV4-11 nude mouse model, 50 mg/kg, continuous PO administration for 21 days

SMILES | F [1] [%] | clearance in rat plasma (in words) [1] | half-life in rat plasma (in words) [1] | level of exposure at 24 h in rat plasma (in words) [1] | Cmax [1] [ng/mL] | Tmax [1] [h] | clearance [1] [mL/min/kg] | half-life [1] [h] | AUC(0-t) [1] [ng·h/mL] | IC50 (CDK1/CyclinB) [nM] | IC50 (CDK7/CyclinH/MAT1) [nM] | tumor inhibition effect compared with Abemaciclib (in words) [2] | Tumor volume (day 0) [2] [mm^3] | Tumor volume (day 21) [2] [mm^3] | T/C relative tumor proliferation rate [2] [%] | TGI tumor growth inhibition rate [2] [%] | inhibitory effect on the tumor growth (in words) [2]
CCN1CCC(C(C)c2ccc(Nc3ncc(F)c(-c4cc(F)c5nc(C)n(C(C)C)c5c4)n3)nc2)CC1 (single isomer, unassigned) [Example 17, (R or S)—N-(5-(1-(1-ethylpiperidin-4-yl)ethyl)pyridin-2-yl)-5-fluoro-4-(4-fluoro-1-isopropyl-2-methyl-1H-benzo[d]imidazol-6-yl) pyrimidin-2-amine] | 66.9 | lower clearance | longer half-life | high level of exposure | 225 | 8 | 14.1 | 9.38 | 3580 | 100 to 500 | 1000 to 10000 | equivalent to that of positive control compound Abemaciclib | 158 | 463 | 38 | 62 | good inhibitory effect
CCN1CCC(=Cc2ccc(Nc3ncc(F)c(-c4cc(F)c5nc(C)n(C(C)C)c5c4)n3)nc2)CC1 [Example 57, N-(5-((1-ethylpiperidin-4-ylidene)methyl)pyridin-2-yl)-5-fluoro-4-(4-fluoro-1-isopropyl-2-methyl-1H-benzo[d]imidazol-6-yl)pyrimidin-2-amine] | 57.6 | lower clearance | longer half-life | high level of exposure | 205 | 8 | 14.8 | 11.7 | 3080 | 100 to 500 | 1000 to 10000 | equivalent to that of positive control compound Abemaciclib | 158 | 491 | 41 | 59 | good inhibitory effect
